# Key:
# [1] = tested on: Paer 27853; test: FISH detection of live and killed bacteria with or without protease digestion; type: cell-based, P. aeruginosa
# [2] = tested on: Ecol 35218; test: as above; type: cell-based, E. coli
# [3] = tested on: Kpne 13882; test: Plate count of live bacteria after killing treatment
# [4] = tested on: Saur 12600; test: FISH detection of live and killed bacteria with or without protease digestion; type: cell-based, S. aureus
# [5] = tested on: Paer 27853; test: Plate count of live bacteria after killing treatment; type: cell-based, P. aeruginosa
# [6] = tested on: Saur 12600; test: as above; type: cell-based, S. aureus
# [7] = tested on: Kpne 13882; test: FISH detection of live and killed bacteria with or without protease digestion; type: cell-based, K. pneumoniae
# [8] = tested on: Ecol 35218; test: Plate count of live bacteria after killing treatment; type: cell-based, E. coli
# [9] = tested on: E. coli; test: Protease-dependent bacterial growth inhibition in rapid blood culture (plating); type: cell-based; details: for Overall rate / Fold Growth: 6 hour run; for Fold Growth: over starting number
# Experimental: Blood culture samples were treated with two different concentrations of protease to determine if protease used at a high concentration could produce inhibition of bacterial growth. Identification of a protease concentration dependent inhibitory effect on the growth rate of microbial cells is an important component of optimization of a rapid blood culture method. Growth of E. coli in simulated bacteremic blood cultures treated with a working protease concentration (0.2 mg/mL) and high protease concentration (20 mg/mL) was compared over a six (6) hour growth and digestion period.
# A mock blood culture specimen was created by addition of 10 mL of blood to a BioMerieux BacT/Alert Standard Aerobic bottle. A 1.0 mL portion of this specimen was used for each condition. Each sample was treated with saponin to a final concentration of 4 mg/mL and SPS to a final concentration of 0.96 mg/mL. Samples were then spiked with E. coli bacteria to a final concentration of 1×10^2 cfu/mL. The samples were treated with a Pronase solution containing either 0.2 mg/mL or 20 mg/mL. Samples were incubated at 35° C. with agitation for 6 hours. A portion of each sample was removed for concentration determination at 2 hour time points during the incubation. The sampled bacteria were plated in 10-fold dilution series to determine the concentration of bacteria at each time point. Interval-by-interval growth rates, overall growth rate, and fold increase versus the starting concentration were determined using the calculated concentrations at each time point.
# [10] = 1 hour, with protease (0.2 mg/mL Pronase)
# [11] = 1 hour, with protease (0.2 mg/mL Pronase), cells live or pre-killed as labelled
# [12] = 4 hour, with protease (0.2 mg/mL Pronase)
# [13] = 4 hour, with protease (0.2 mg/mL Pronase), cells live or pre-killed as labelled
# [14] = 0 hr, after gentamycin 100 micrograms per mL 1 hour or 80% ethanol
# [15] = gentamycin 1 hour or 80% ethanol
# [16] = High protease (20 mg/mL Pronase)
# [17] = Low protease (0.2 mg/mL Pronase)
substance,measurement,setting,value
gentamycin,FISH Conc,"[1]; 1 hour, no protease",3.7 × 10^5 cells/mL
same,Positive Detection?,"[1]; 1 hour, no protease",Yes (A detection threshold of 1×10^4 cells per mL was used as the threshold for a positive call in the FISH assay)
same,Positive Detection?,[1]; [10],Yes (A detection threshold of 1×10^4 cells per mL was used as the threshold for a positive call in the FISH assay)
same,FISH Conc,[1]; [11],5.3 × 10^4 cells/mL
same,FISH Conc,"[1]; 4 hour, no protease",3.0 × 10^5 cells/mL
same,Positive Detection?,"[1]; 4 hour, no protease",Yes (A detection threshold of 1×10^4 cells per mL was used as the threshold for a positive call in the FISH assay)
same,Positive Detection?,[1]; [12],No (A detection threshold of 1×10^4 cells per mL was used as the threshold for a positive call in the FISH assay)
same,FISH Conc,[1]; [13],6.7 × 10^3 cells/mL
same,FISH Conc,"[2]; 1 hour, no protease",8.8 × 10^6 cells/mL
same,Positive Detection?,"[2]; 1 hour, no protease",Yes (A detection threshold of 1×10^4 cells per mL was used as the threshold for a positive call in the FISH assay)
same,Positive Detection?,[2]; [10],Yes (A detection threshold of 1×10^4 cells per mL was used as the threshold for a positive call in the FISH assay)
same,FISH Conc,[2]; [11],5.5 × 10^5 cells/mL
same,FISH Conc,"[2]; 4 hour, no protease",4.8 × 10^5 cells/mL
same,Positive Detection?,"[2]; 4 hour, no protease",Yes (A detection threshold of 1×10^4 cells per mL was used as the threshold for a positive call in the FISH assay)
same,Positive Detection?,[2]; [12],Yes (A detection threshold of 1×10^4 cells per mL was used as the threshold for a positive call in the FISH assay)
same,FISH Conc,[2]; [13],4.5 × 10^5 cells/mL
same,Conc of live bacteria by plating,[3]; [14],60 cfu/mL
same,"Killing by plating, in words",[3]; [15],substantially killed
same,FISH Conc,"[4]; 1 hour, no protease",1.4 × 10^5 cells/mL
same,Positive Detection?,"[4]; 1 hour, no protease",Yes (A detection threshold of 1×10^4 cells per mL was used as the threshold for a positive call in the FISH assay)
same,Positive Detection?,[4]; [10],Yes (A detection threshold of 1×10^4 cells per mL was used as the threshold for a positive call in the FISH assay)
same,FISH Conc,[4]; [11],1.1 × 10^5 cells/mL
same,FISH Conc,"[4]; 4 hour, no protease",3.0 × 10^4 cells/mL
same,Positive Detection?,"[4]; 4 hour, no protease",Yes (A detection threshold of 1×10^4 cells per mL was used as the threshold for a positive call in the FISH assay)
same,Positive Detection?,[4]; [12],Yes (A detection threshold of 1×10^4 cells per mL was used as the threshold for a positive call in the FISH assay)
same,FISH Conc,[4]; [13],3.0 × 10^4 cells/mL
same,Conc of live bacteria by plating,[5]; [14],20 cfu/mL
same,"Killing by plating, in words",[5]; [15],substantially killed
same,Conc of live bacteria by plating,[6]; [14],2 × 10^3 cfu/mL
same,"Killing by plating, in words",[6]; [15],a significant number of S. aureus remained alive
same,FISH Conc,"[7]; 1 hour, no protease",1.7 × 10^5 cells/mL
same,Positive Detection?,"[7]; 1 hour, no protease",Yes (A detection threshold of 1×10^4 cells per mL was used as the threshold for a positive call in the FISH assay)
same,Positive Detection?,[7]; [10],Yes (A detection threshold of 1×10^4 cells per mL was used as the threshold for a positive call in the FISH assay)
same,FISH Conc,[7]; [11],7.7 × 10^4 cells/mL
same,FISH Conc,"[7]; 4 hour, no protease",<1 × 10^3 cells/mL
same,Positive Detection?,"[7]; 4 hour, no protease",No (A detection threshold of 1×10^4 cells per mL was used as the threshold for a positive call in the FISH assay)
same,Positive Detection?,[7]; [12],Yes (A detection threshold of 1×10^4 cells per mL was used as the threshold for a positive call in the FISH assay)
same,FISH Conc,[7]; [13],1.7 × 10^4 cells/mL
same,Conc of live bacteria by plating,[8]; [14],10 cfu/mL
same,"Killing by plating, in words",[8]; [15],substantially killed
Pronase [Protease],Positive Detection?,[1]; [10],Yes (A detection threshold of 1×10^4 cells per mL was used as the threshold for a positive call in the FISH assay)
same,FISH Conc,[1]; [11],9.0 × 10^4 cells/mL
same,Positive Detection?,[1]; [12],Yes (A detection threshold of 1×10^4 cells per mL was used as the threshold for a positive call in the FISH assay)
same,FISH Conc,[1]; [13],5.9 × 10^6 cells/mL
same,Positive Detection?,[2]; [10],Yes (A detection threshold of 1×10^4 cells per mL was used as the threshold for a positive call in the FISH assay)
same,FISH Conc,[2]; [11],2.3 × 10^6 cells/mL
same,Positive Detection?,[2]; [12],Yes (A detection threshold of 1×10^4 cells per mL was used as the threshold for a positive call in the FISH assay)
same,FISH Conc,[2]; [13],1.8 × 10^7 cells/mL
same,Positive Detection?,[4]; [10],Yes (A detection threshold of 1×10^4 cells per mL was used as the threshold for a positive call in the FISH assay)
same,FISH Conc,[4]; [11],1.6 × 10^6 cells/mL
same,Positive Detection?,[4]; [12],Yes (A detection threshold of 1×10^4 cells per mL was used as the threshold for a positive call in the FISH assay)
same,FISH Conc,[4]; [13],4.2 × 10^7 cells/mL
same,lower overall increase with the higher concentration of protease,"[9]; 20 mg/mL versus 0.2 mg/mL, 6 hour incubation",approximately 8.5 fold
same,Calculated growth rate 0→2 Hours,[9]; [16],0.70
same,Calculated growth rate 2→4 Hours,[9]; [16],2.74
same,Calculated growth rate 4→6 Hours,[9]; [16],2.22
same,Conc of bacteria,"[9]; High protease (20 mg/mL Pronase), 2 hr",2.7 × 10^2 cfu/mL
same,Conc of bacteria,"[9]; High protease (20 mg/mL Pronase), 4 hr",1.2 × 10^4 cfu/mL
same,Overall rate,[9]; [16],1.89
same,Conc of bacteria,"[9]; High protease (20 mg/mL Pronase), 6 hr",2.6 × 10^5 cfu/mL
same,Fold Growth,[9]; [16],"2,600"
same,Calculated growth rate 0→2 Hours,[9]; [17],0.60
same,Calculated growth rate 2→4 Hours,[9]; [17],2.96
same,Calculated growth rate 4→6 Hours,[9]; [17],3.65
same,Conc of bacteria,"[9]; Low protease (0.2 mg/mL Pronase), 2 hr",2.3 × 10^2 cfu/mL
same,Conc of bacteria,"[9]; Low protease (0.2 mg/mL Pronase), 4 hr",1.4 × 10^4 cfu/mL
same,Overall rate,[9]; [17],2.40
same,Conc of bacteria,"[9]; Low protease (0.2 mg/mL Pronase), 6 hr",2.2 × 10^6 cfu/mL
same,Fold Growth,[9]; [17],"22,000"
same,Positive Detection?,[7]; [10],Yes (A detection threshold of 1×10^4 cells per mL was used as the threshold for a positive call in the FISH assay)
same,FISH Conc,[7]; [11],7.7 × 10^4 cells/mL
same,Positive Detection?,[7]; [12],Yes (A detection threshold of 1×10^4 cells per mL was used as the threshold for a positive call in the FISH assay)
same,FISH Conc,[7]; [13],4.3 × 10^6 cells/mL

# Source: patent US20150225762A1, “SAME-DAY BLOOD CULTURE WITH DIGITAL MICROSCOPY” (ACCELERATE DIAGNOSTICS, INC., priority 2012, published 2015)
